# In PMC11274883, “Anticancer Effect of Pt^[sequence], Pt^II5MESS, Pt^II56MESS and Their Platinum(IV)-Dihydroxy Derivatives against Triple-Negative Breast Cancer and Cisplatin-Resistant Colorectal Cancer” (Cancers, 2024):
# Experiments:
# Type in all cases: cell-based
# MDA−MB−231 3D networks = test: 3D bioprinted culture cytotoxicity (WST-1); details: 72 h, mean ± SEM
# Excerpt: (§1) To evaluate the cytotoxic effect of platinum(II) and (IV) complexes in 3D cell culture, MDA−MB−231 or HT29 cells were used to bioprint networks or spheroids with the non-contact drop-on-demand 3D RASTRUM bioprinter (Inventia Life Science, Alexandria, NSW, Australia). The 3D cultures use two constituents: bioink and activator. Cell pellets (2 × 10^6 cells) were resuspended in an activator reagent which forms an instant gel after its addition to the bioink by the bioprinter. The 3D large plug cell model with polyethylene glycol bioinks formulated to mimic the properties of in vivo tissue were chosen as follows. Matrix Px02.31 (activator F177 and bioink F242 with RGD: Fibronectin) was used for MDA−MB−231 3D embedded networks, Px02.00 (activator F177 and bioink F119 without RGD additives, Table S1) was used for MDA−MB−231 spheroids and matrix #Px02.09 (activator F177 and bioink F236 with adhesion peptides including, RGD: Fibronectin, and GFOGER: collagen type I to recapitulate rich in vivo tissue extracellular environments) was used for HT29 spheroids (Inventia Life Science) (Table S1). Each cell line was printed at 10,000 cells/well and loaded with the bioink fluids into the selected printer cartridge. After the automated priming of all fluids into the printer nozzles, each cell line was individually printed on tissue culture plates (Nunc^TM MicroWell^TM 96-Well, Nunclon Delta-Treated, Flat-Bottom Microplate, ThermoFisher #167008), with RASTRUM creating the 3D Large Plug across the 96-well plate. Following completion of the print run, 200 μL DMEM culture medium was added to each well using multichannel pipettes. The plate was then incubated for 7 days (humidified incubator with 5% CO2 at 37 °C) for compact and homogenous spheroid formation before the cytotoxicity assay. When the spheroids developed, post-7-day incubation, media was removed and replaced with 100 µL DMEM. […] Cytotoxicity was then assessed using the WST-1 assay as previously described in Section 2.3.
# HT29 spheroids = test: 3D bioprinted spheroid cytotoxicity (WST-1); details: 72 h, mean ± SEM
# Excerpt: as §1
# MDA−MB−231 spheroids = test: 3D bioprinted spheroid cytotoxicity (WST-1); details: 72 h, mean ± SEM
# Excerpt: as §1
# HT29 cells = test: Cellular uptake of Pt by ICP-MS; details: for Intracellular Concentration: HT29, 3 µM; for Intracellular/extracellular ratio: HT29, extracellular 3 µM
# Method: (§2) A final concentration of 10^6 cells/well of MDA−MB−231 and HT29 cells were seeded in 6-well plates and incubated overnight to adhere. The cells were then treated with a final concentration of 3 µM of either Pt^II or Pt^IV complexes. After 0, 0.5, 1, 3, 6, 12, 24 or 30 h, the medium was removed, and the cells were washed three times with cold PBS and allowed to dry. Then, 400 µL of 69% HNO3 (Baseline grade nitric acid with PPB level reported impurities, Seastar Chemicals, Sidney, BC, Canada) was added to each well for 90 min to ensure complete digestion. […] Iridium 193 (^193Ir) was mixed online and introduced into the ICP-MS to check uptake efficiency and matrix interference. All ICP-MS parameters are described in Table S2 and elaborated in Method S3. The results represent an average of three different experiments run in triplicate (±SEM) and expressed as nmol/10^6 cells or µM/cell. Quantification of the cellular uptake of Pt was based on external standards (Certified Standard from Sigma-Aldrich, VIC, Australia) containing Internal standard Ir.
# (§3) Method S3. Cellular Uptake of Platinum(II) and (IV) complexes
# (§4) A final concentration of 10^6 cells/well of MDA−MB−231 and HT29 cells were seeded in 6-well plates and incubated overnight to adhere. The cells were then treated with a final concentration of 3 µM of either PtII or PtIV complexes. After 0, 0.5, 1, 3, 6, 12, 24 or 30 h, the medium was removed, and the cells were washed three times with cold PBS and allowed to dry. Then, 400 µL of 69% HNO3 (Baseline grade nitric acid with Instrument Quality Grade Nitric acid with ppb level reported impurities, Seastar Chemicals, Sidney, Canada) was added to each well for 90 mins to ensure complete digestion. The digests were then moved to trace -metal free 15 mL centrifuge tubes […]
# (§5) concentration of 3.5-4%. Iridium 193 (193Ir), selected as internal standard, has similar first ionisation potential and mass to Platinum 195 (195Pt). A concentration of 50 ppb 193Ir in 2% HNO3 solution was chosen for the Perkin Elmer NexION® Inductively Coupled Plasma Mass Spectrometer (ICP-MS) as it produced a steady state signal intensity of 600-800K counts per second. Mixing and injection of sample and internal standard solution was carried out using an ESI 7 port Valve system (Elemental Scientific, USA). A high-quality Solvent Flex 2 stop pump with 0.38 mm ID tubing was used in conjunction with the ICP-MS’s Peristaltic pump set at 20 […]
# (§6) standard both, at 0.25 mL/min) being 0.5 mL/min. The ICP-MS was tuned to high sensitivity settings to facilitate detection of low Pt concentrations in samples. This was done by adjusting the nebuliser gas flow between […] to achieve maximum Indium 115 intensity whilst maintaining an acceptable average oxide and doubly charged ratio of 1.64-2.24% and 1.17-1.69% respectively. The analysis method was set to peak hopping mode with a dwell time of […] and 45 sweeps through the mass spectrum per sample read. […]
# (§7) peak integration time of 4500 milliseconds and enabled the collection of numerous data points for peak integration thereby increasing accuracy. The ICP-MS was tuned daily, and its performance optimised to a set of suppliers recommended settings. Analysis was only carried out when optimal oxide and doubly charged ratios with high ionic sensitivity was achieved. All ICP-MS parameters are described in Table S2. The results represent an average of three different experiments run in triplicates (± SEM) and expressed as nmol/106 cells or µM/cell. Quantification of the cellular uptake of Pt was based on external standards (Certified Standard from Sigma-Aldrich NSW, Australia) containing Internal standard Ir. […]
# MDA−MB−231 cells = test: Cellular uptake of Pt by ICP-MS; details: for Intracellular Concentration: MDA−MB−231, 3 µM; for Intracellular/extracellular ratio: MDA−MB−231, extracellular 3 µM
# Method: as §2, §3, §4, §5, §6, §7
smiles,measurement,setting,value
"Cc1c(C)c2cccnc2c2ncccc12.N[C@H]1CCCC[C@@H]1N.O=[N+]([O-])[O-].O=[N+]([O-])[O-].[Pt+2] [Pt^II56MESS, [Pt(5,6-dimethyl-1,10-phenanthroline)(1S,2S-diaminocyclohexane)](NO3)2]",IC50,MDA−MB−231 3D networks,0.98 ± 1.21 µM
same,IC50,HT29 spheroids,0.99 ± 1.29 µM
same,IC50,MDA−MB−231 spheroids,2.49 ± 1.98 µM
same,Intracellular Concentration,HT29 cells; 0 h,0.45 nmol/10^6 cells
same,Intracellular Concentration,HT29 cells; 0.5 h,0.87 nmol/10^6 cells
same,Intracellular Concentration,HT29 cells; 1 h,1.38 nmol/10^6 cells
same,Intracellular Concentration,HT29 cells; 3 h,2.23 nmol/10^6 cells
same,Intracellular Concentration,HT29 cells; 6 h,5.05 nmol/10^6 cells
same,Intracellular Concentration,HT29 cells; 12 h,17.67 nmol/10^6 cells
same,Intracellular Concentration,HT29 cells; 24 h,23.28 nmol/10^6 cells
same,Intracellular Concentration,HT29 cells; 30 h,24.85 nmol/10^6 cells
same,intracellular/extracellular ratio relative to the maximum ratio of cisplatin,"HT29 cells; HT29, 30 h",34.8 fold
same,Intracellular/extracellular ratio,HT29 cells; 0 h,70.93
same,Intracellular/extracellular ratio,HT29 cells; 0.5 h,136.74
same,Intracellular/extracellular ratio,HT29 cells; 1 h,216.82
same,Intracellular/extracellular ratio,HT29 cells; 3 h,350.73
same,Intracellular/extracellular ratio,HT29 cells; 6 h,793.80
same,Intracellular/extracellular ratio,HT29 cells; 12 h,2776.28
same,Intracellular/extracellular ratio,HT29 cells; 24 h,3657.59
same,Intracellular/extracellular ratio,"HT29 cells; 30 h, listed as 56MESS",~3904
same,Intracellular/extracellular ratio,"HT29 cells; 30 h, listed as PtII56MESS",3903.51
same,drug's concentration per cell,"HT29 cells; per HT29 cell, cell volume 1.7 pL, starting concentration 3 µM","~11,711 µM"
same,Intracellular Concentration,MDA−MB−231 cells; 0 h,0.68 nmol/10^6 cells
same,Intracellular Concentration,MDA−MB−231 cells; 0.5 h,0.58 nmol/10^6 cells
same,Intracellular Concentration,MDA−MB−231 cells; 1 h,0.78 nmol/10^6 cells
same,Intracellular Concentration,MDA−MB−231 cells; 3 h,1.24 nmol/10^6 cells
same,Intracellular Concentration,MDA−MB−231 cells; 6 h,1.88 nmol/10^6 cells
same,Intracellular Concentration,MDA−MB−231 cells; 12 h,4.80 nmol/10^6 cells
same,Intracellular Concentration,MDA−MB−231 cells; 24 h,5.38 nmol/10^6 cells
same,Intracellular Concentration,MDA−MB−231 cells; 30 h,11.24 nmol/10^6 cells
same,intracellular/extracellular ratio relative to the maximum ratio of cisplatin,"MDA−MB−231 cells; MDA−MB−231, 30 h",8.7 fold
same,Intracellular/extracellular ratio,MDA−MB−231 cells; 0 h,107.16
same,Intracellular/extracellular ratio,MDA−MB−231 cells; 0.5 h,92.36
same,Intracellular/extracellular ratio,MDA−MB−231 cells; 1 h,122.42
same,Intracellular/extracellular ratio,MDA−MB−231 cells; 3 h,195.59
same,Intracellular/extracellular ratio,MDA−MB−231 cells; 6 h,296.93
same,Intracellular/extracellular ratio,MDA−MB−231 cells; 12 h,754.52
same,Intracellular/extracellular ratio,MDA−MB−231 cells; 24 h,845.27
same,Intracellular/extracellular ratio,MDA−MB−231 cells; 30 h,1765.95 ± 526.75
same,Intracellular/extracellular ratio,"MDA−MB−231 cells; 30 h, listed as 56MESS",around 1766
same,Intracellular/extracellular ratio,"MDA−MB−231 cells; 30 h, listed as PtII56MESS",1765.95
same,drug's concentration per cell,"MDA−MB−231 cells; per MDA−MB−231 cell, cell volume 1.7 pL, starting concentration 3 µM",about 5298 µM
"Cc1cc2cccnc2c2ncccc12.N[C@H]1CCCC[C@@H]1N.O=[N+]([O-])[O-].O=[N+]([O-])[O-].[OH][Pt+2][OH] [Pt^IV5MESS(OH)2, [Pt(5-methyl-1,10-phenanthroline)(1S,2S-diaminocyclohexane)(dihydroxy)](NO3)2]",IC50,MDA−MB−231 3D networks,3.82 ± 1.42 µM
same,IC50,HT29 spheroids,8.46 ± 1.23 µM
same,IC50,MDA−MB−231 spheroids,7.99 ± 1.3 µM
same,Intracellular Concentration,HT29 cells; 0 h,0.15 nmol/10^6 cells
same,Intracellular Concentration,HT29 cells; 0.5 h,0.17 nmol/10^6 cells
same,Intracellular Concentration,HT29 cells; 1 h,0.28 nmol/10^6 cells
same,Intracellular Concentration,HT29 cells; 3 h,0.33 nmol/10^6 cells
same,Intracellular Concentration,HT29 cells; 6 h,0.66 nmol/10^6 cells
same,Intracellular Concentration,HT29 cells; 12 h,5.05 nmol/10^6 cells
same,Intracellular Concentration,HT29 cells; 24 h,7.37 nmol/10^6 cells
same,Intracellular Concentration,HT29 cells; 30 h,7.85 nmol/10^6 cells
same,Intracellular/extracellular ratio,HT29 cells; 0 h,25.03
same,Intracellular/extracellular ratio,HT29 cells; 0.5 h,26.29
same,Intracellular/extracellular ratio,HT29 cells; 1 h,44.59
same,Intracellular/extracellular ratio,HT29 cells; 3 h,52.25
same,Intracellular/extracellular ratio,HT29 cells; 6 h,104.08
same,Intracellular/extracellular ratio,HT29 cells; 12 h,793.61
same,Intracellular/extracellular ratio,HT29 cells; 24 h,1158.37
same,Intracellular/extracellular ratio,HT29 cells; 30 h,1234.08
same,Intracellular Concentration,MDA−MB−231 cells; 0 h,0.16 nmol/10^6 cells
same,Intracellular Concentration,MDA−MB−231 cells; 0.5 h,0.22 nmol/10^6 cells
same,Intracellular Concentration,MDA−MB−231 cells; 1 h,0.17 nmol/10^6 cells
same,Intracellular Concentration,MDA−MB−231 cells; 3 h,0.25 nmol/10^6 cells
same,Intracellular Concentration,MDA−MB−231 cells; 6 h,0.29 nmol/10^6 cells
same,Intracellular Concentration,MDA−MB−231 cells; 12 h,1.19 nmol/10^6 cells
same,Intracellular Concentration,MDA−MB−231 cells; 24 h,1.31 nmol/10^6 cells
same,Intracellular Concentration,MDA−MB−231 cells; 30 h,2.37 nmol/10^6 cells
same,Intracellular/extracellular ratio,MDA−MB−231 cells; 0 h,26.14
same,Intracellular/extracellular ratio,MDA−MB−231 cells; 0.5 h,35.23
same,Intracellular/extracellular ratio,MDA−MB−231 cells; 1 h,27.69
same,Intracellular/extracellular ratio,MDA−MB−231 cells; 3 h,40.45
same,Intracellular/extracellular ratio,MDA−MB−231 cells; 6 h,46.47
same,Intracellular/extracellular ratio,MDA−MB−231 cells; 12 h,186.97
same,Intracellular/extracellular ratio,MDA−MB−231 cells; 24 h,205.97
same,Intracellular/extracellular ratio,MDA−MB−231 cells; 30 h,371.97
